# US20250084039A1, “4-SUBSTITUTED AMINOISOQUINOLINE DERIVATIVES” (Purdue Research Foundation, priority 2016, published 2025)
# Read-outs that look alike come from different tables or passages of the source.
# Experiments:
# MV4-11 [1] = assay: Activity against AML cell line MV4-11 (CellTiter-Blue, 72 h); type: cell-based
# How it was run: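 Suspension cells seeded at 4000 per well, left overnight, then exposed to compound from 10 nM to 100 μM for 72 h. Viability by CellTiter-Blue resazurin fluorescence after 4 h (Ex 560, Em 590); IC50 from concentration-response.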
# FLT3 = FLT3 (Homo sapiens (Human), UniProt P36888); assay: Inhibition of kinase enzymatic activity (IC50); type: biochemical; conditions: in vitro
# FLT3 ITD = FLT3 ITD (Homo sapiens, UniProt P36888)
# CDK6 = CDK6 (Homo sapiens (Human), UniProt Q00534); assay: DiscoverX Kd Elect binding
# Description: (§1) HCK is expressed more in human primary leukemic stem cells than in human normal hematopoietic stem cells. […] Other protein kinases such as SYK, BRAF, p38 (p38MAPK), PDGFRα/β, FGFR1, RET, FLT4, Tie2 have also been linked to leukemia. […] Thus, it was tested if HSN286 and analogs were also targeting kinases that play critical roles in AML. […] (Table 9). The inhibition of the Src-kinase family could be important clinically because these kinases are downstream of FLT3. In the event of FLT3 mutation, the inhibition of the Src-family kinases could still lead to proliferation inhibition.
# CDK9 = CDK9 (Homo sapiens (Human), UniProt P50750); assay: DiscoverX Kd Elect binding
# Description: as §1
# HL60 = assay: Selectivity, proliferation IC50; type: cell-based; conditions: Homo sapiens, HL-60; read-out: IC50 HL60 (acute promyelocytic leukemia)
# Description: (§2) Cell lines were seeded into 96-well plates the afternoon prior to treatment. Approximately 18 hours later, compounds were diluted in dimethyl sulfoxide (DMSO) and added to cells. Plates were incubated for 72 hours and cells viability determined with CellTiter-Blue Cell Viability Assay (Promega, Madison, WI). Plates were read after 4 additional hours of incubation at 37° C. using plate reader (Bio-Tek, Winooski. VT). Data was analyzed and graphed using GraphPad Prism Software (Graphpad. La Jolla, CA).
# Kasumi-1 = assay: Selectivity, proliferation IC50; type: cell-based; conditions: Homo sapiens, read-out: IC50 Kasumi-1 (non-FLT3 AML line)
# Description: as §2
# THP1 = assay: Selectivity, proliferation IC50; type: cell-based; conditions: Homo sapiens, THP-1; read-out: IC50 THP1 (non-FLT3-driven AML line)
# Description: as §2
# MRC5 = assay: Selectivity, proliferation IC50 (normal cell line); type: cell-based; conditions: Homo sapiens, read-out: IC50 MRC5 (normal lung fibroblast)
# Description: as §2
# FLT3 phosphorylation = assay: Western blot in MV4-11; type: cell-based, human
# Description: Total protein extracts were prepared using RIPA buffer (SIGMA) supplemented with Complete Mini™ protease inhibitor and PHOStop™ phosphatase inhibitors (Roche). […] The membrane was blocked with 5% dry milk in 1×TBS/0.1% Tween 20 (TBST) for at least 1 h at room temperature and incubated with human specific primary antibodies: FLT3, Phospho-FLT3, c-Myc (Cell Signaling Technologies), KRAS (Santa Cruz), or mouse anti-β-actin (SIGMA) overnight at 4° C. The membrane was washed 3 times in TBST and incubated with a horseradish peroxidase-conjugated secondary anti-rabbit or anti-mouse antibody (Cell Signaling Technologies) for 1 h at room temperature. Blots were again washed and the signal was detected with SuperSignal West Femto Chemiluminescent Substrate (Pierce) and exposed to HyBlot CL® autoradiography film (Denville).
# STAT3 phosphorylation = assay: Western blot in MV4-11; type: cell-based, human
# Description: (§3) Effect of HSW630-1 on protein expression was tested in the MV4-11 leukemia cell line. Total protein extracts were prepared using RIPA buffer (SIGMA) supplemented with Complete Mini™ protease inhibitor and PHOStop™ phosphatase inhibitors (Roche). Equal amounts of proteins (up to 25 μg) were separated on 4-12% NuPAGE gels in 1×MOPS or 1×MES buffer (Invitrogen) and transferred onto PVDF membranes (Millipore). The membrane was blocked with 5% dry milk in 1×TBS/0.1% Tween 20 (TBST) for at least 1 h at room temperature and incubated with human specific primary antibodies: FLT3, Phospho-FLT3, c-Myc (Cell Signaling Technologies), KRAS (Santa Cruz), or mouse anti-β-actin (SIGMA) overnight at 4° C. The membrane was washed 3 times in TBST and incubated with a horseradish peroxidase-conjugated secondary anti-rabbit or anti-mouse antibody (Cell Signaling Technologies) for 1 h at room temperature. Blots were again washed and the signal was detected with SuperSignal West Femto Chemiluminescent Substrate (Pierce) and exposed to HyBlot CL® autoradiography film (Denville).
# (§4) To determine if the phosphorylation of FLT3, SRC kinase and downstream effectors or kinases (such as STAT3 [44], STAT5 [45] and p-38 [46]) could be affected by the compounds. […] The level of SRC kinase increased over time (amount at the 48 h time point is greater than at the 6 and 24 h time points). Unfortunately the bands for the phosphorylated SRC kinase are blurred despite repeated attempts to get clearer bands. […] From the above Western analyses, it is confirmed that the proliferation inhibition of MV4-11 is due to the inhibition of FLT3 signaling axis.
# STAT5 phosphorylation = assay: Western blot in MV4-11; type: cell-based, human
# Description: as §3, §4
# p-38 phosphorylation = assay: Western blot in MV4-11; type: cell-based, human
# Description: as §3, §4
# MV4-11 [2] = assay: Proliferation inhibition screen at 100 nM; type: cell-based; conditions: 100 nM compound, FIG. 10
# Description: To determine inhibition at 100 nM or […], 96-well plates were seeded the afternoon before treatment. Plates were then treated with compound diluted in dimethyl sulfoxide (DMSO) as well as a DMSO control the following day for 72 hours. After this time the plates were then treated with 10 μL of CellTiter-Blue Cell Viability Assay (Promega, Madison, WI) for 4 hours. Then the plates were read on a plate reader (Bio-Tek, Winooski, VT). Data was analyzed on Excel as a percent of the DMSO vehicle.
# From these cell proliferation studies, MV4-11 appeared to be more sensitive to the compounds than the other cell lines (Table 6A). […] To identify group of compounds potently inhibiting cancer cell proliferation, a lower concentration of compounds (100 nM) were used to screen against MV4-11 (FIG. 10). From these experiments, potent amide compounds A7, A10, A15, A16, A18, A20, B15 and D30 (as indicated by ***, FIG. 10) were selected. […] Typically amides that contain basic amines are included in compound libraries to improve aqueous solubility but it appears that the presence of a basic amine in the side chain of the compounds also facilitated the actual inhibition of MV4-11 proliferation.
# Chain of FLT3 ITD (P36888 whole entry, looked up, change not shown): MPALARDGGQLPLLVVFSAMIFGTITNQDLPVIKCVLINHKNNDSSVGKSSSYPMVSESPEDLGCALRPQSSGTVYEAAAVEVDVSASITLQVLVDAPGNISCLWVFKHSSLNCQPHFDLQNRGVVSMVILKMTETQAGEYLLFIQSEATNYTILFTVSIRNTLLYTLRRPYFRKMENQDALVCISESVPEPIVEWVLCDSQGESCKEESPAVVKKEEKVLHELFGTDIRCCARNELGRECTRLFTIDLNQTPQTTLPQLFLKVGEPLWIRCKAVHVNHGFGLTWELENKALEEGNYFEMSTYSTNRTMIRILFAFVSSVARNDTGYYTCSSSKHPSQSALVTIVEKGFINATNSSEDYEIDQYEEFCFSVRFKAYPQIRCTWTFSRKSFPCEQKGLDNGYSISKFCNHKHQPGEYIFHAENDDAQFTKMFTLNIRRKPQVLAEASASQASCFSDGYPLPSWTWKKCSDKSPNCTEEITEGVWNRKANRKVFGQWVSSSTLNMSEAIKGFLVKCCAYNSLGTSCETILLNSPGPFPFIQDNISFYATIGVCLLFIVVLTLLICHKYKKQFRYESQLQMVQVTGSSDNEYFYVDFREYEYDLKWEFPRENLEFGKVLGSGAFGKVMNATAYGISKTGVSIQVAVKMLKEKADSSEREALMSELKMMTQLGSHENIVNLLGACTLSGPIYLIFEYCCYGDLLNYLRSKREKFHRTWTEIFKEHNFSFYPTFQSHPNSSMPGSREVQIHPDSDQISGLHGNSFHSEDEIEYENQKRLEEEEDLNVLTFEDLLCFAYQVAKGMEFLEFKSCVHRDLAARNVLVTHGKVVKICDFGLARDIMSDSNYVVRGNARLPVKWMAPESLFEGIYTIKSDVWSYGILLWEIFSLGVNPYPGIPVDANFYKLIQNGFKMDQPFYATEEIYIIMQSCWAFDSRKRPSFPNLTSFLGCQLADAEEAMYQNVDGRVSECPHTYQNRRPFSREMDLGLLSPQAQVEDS
# Chain of CDK9 (P50750 whole entry): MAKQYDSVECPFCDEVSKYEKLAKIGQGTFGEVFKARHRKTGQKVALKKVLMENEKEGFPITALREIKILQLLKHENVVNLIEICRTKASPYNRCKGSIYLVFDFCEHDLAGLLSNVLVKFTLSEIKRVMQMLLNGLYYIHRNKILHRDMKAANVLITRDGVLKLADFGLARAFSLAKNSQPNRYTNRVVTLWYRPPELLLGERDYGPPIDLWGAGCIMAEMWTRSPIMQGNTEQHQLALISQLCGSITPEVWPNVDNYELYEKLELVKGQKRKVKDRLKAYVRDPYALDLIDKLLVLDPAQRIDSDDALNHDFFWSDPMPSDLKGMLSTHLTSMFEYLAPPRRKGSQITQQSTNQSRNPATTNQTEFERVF
# Chain of CDK6 (Q00534 whole entry): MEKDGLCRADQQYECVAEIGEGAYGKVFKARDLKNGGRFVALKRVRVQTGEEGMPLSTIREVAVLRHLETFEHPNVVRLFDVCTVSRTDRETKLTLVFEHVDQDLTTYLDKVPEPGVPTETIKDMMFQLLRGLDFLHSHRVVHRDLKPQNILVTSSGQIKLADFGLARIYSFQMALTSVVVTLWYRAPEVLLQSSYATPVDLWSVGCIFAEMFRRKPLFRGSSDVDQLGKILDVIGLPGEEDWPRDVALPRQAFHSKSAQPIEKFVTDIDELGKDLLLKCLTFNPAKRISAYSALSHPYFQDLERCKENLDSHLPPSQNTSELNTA
# Chain of FLT3 (P36888 27-993): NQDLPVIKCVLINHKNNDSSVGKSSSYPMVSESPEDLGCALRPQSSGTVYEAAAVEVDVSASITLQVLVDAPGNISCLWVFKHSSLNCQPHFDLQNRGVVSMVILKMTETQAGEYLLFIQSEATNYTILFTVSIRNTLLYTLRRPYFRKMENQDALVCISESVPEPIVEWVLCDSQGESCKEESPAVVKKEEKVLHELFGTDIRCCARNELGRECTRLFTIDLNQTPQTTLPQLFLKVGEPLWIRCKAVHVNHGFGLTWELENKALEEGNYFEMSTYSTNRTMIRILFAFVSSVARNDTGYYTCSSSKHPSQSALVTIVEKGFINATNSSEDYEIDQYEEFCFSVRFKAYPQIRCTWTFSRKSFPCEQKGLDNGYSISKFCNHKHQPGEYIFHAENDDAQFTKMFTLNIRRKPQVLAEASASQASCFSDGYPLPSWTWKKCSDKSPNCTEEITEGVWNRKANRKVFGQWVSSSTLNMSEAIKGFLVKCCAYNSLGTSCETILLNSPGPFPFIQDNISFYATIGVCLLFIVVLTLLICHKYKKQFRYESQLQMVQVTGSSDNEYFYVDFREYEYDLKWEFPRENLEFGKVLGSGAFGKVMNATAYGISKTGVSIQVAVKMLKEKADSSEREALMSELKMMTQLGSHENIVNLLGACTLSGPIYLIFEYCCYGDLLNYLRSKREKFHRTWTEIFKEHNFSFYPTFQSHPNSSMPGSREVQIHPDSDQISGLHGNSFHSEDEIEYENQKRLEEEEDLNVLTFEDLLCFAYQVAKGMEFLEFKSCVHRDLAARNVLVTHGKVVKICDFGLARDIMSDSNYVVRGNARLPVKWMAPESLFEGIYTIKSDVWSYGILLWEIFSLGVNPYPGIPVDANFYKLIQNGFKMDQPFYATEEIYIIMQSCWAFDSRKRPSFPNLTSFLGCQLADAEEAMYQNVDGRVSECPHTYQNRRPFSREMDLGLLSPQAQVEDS
smiles,measurement,setting,value
CN(C)CC(O)CNC(=O)c1ccc(C#Cc2c(N)ncc3ccc(Cl)cc23)cc1 (stereo not shown) [HSM1702],IC50,"MV4-11 [1]; 72 h, read-out: IC50 against MV4-11/uM",0.003 µM
same,IC50,"MV4-11 [1]; FIG. 1, read-out: anticancer activities (IC50) against MV4-11",0.003 µM
same,IC50,"MV4-11 [1]; Table 2, read-out: IC50 (nM) against MV4-11 (AML cell line)",0.0055 ± 0.0013 µM
"Cc1ccc(C(=O)Nc2ccc(CN3CCN(C)CC3)c(C(F)(F)F)c2)cc1C#Cc1cnc(N)c2ncccc12 [HSN356, 3-((8-amino-1,7-naphthyridin-5-yl)ethynyl)-4-methyl-N-(4-((4-methylpiperazin-1-yl)methyl)-3-(trifluoromethyl)phenyl)benzamide]",IC50 FLT3 enzymatic inhibition,FLT3,single digit
same,IC50 FLT3 ITD enzymatic inhibition,FLT3 ITD,single digit
Cc1ccc(C(=O)Nc2ccc(CN3CCN(C)CC3)c(C(F)(F)F)c2)cc1C#Cc1c(N)ncc2ccc(Cl)cc12 [HSN286],Kd,CDK6,28000 nM
same,Kd,CDK9,2300 nM
same,IC50,HL60,2160 nM
same,IC50,Kasumi-1,> 10000 nM
same,IC50,THP1,2320 nM
same,IC50,MRC5,1270 nM
same,FLT3 phosphorylation (Western),FLT3 phosphorylation,inhibited
same,STAT3 phosphorylation (Western),STAT3 phosphorylation,inhibited
same,STAT5 phosphorylation (Western),STAT5 phosphorylation,inhibited
same,p-38 phosphorylation (Western),p-38 phosphorylation,inhibited
same,inhibition of MV4-11 proliferation in words,MV4-11 [2],potent
